The subject of the first assay is TFEB. Description: TFEB nuclear translocation assay, HeLa wt cells. It is filed as cell-based. The settings on record: 2 hrs compound treatment, Table 1 does not say HeLa wt or TRPML1 KO. The procedure, abridged:
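Cells are plated overnight, exposed to compounds for 2 hrs at 37° C, fixed with 4% PFA, blocked, and stained overnight at 4° C with rabbit anti-TFEB. After Alexa 488 secondary and Hoechst, nuclei and a perinuclear ring are segmented to give a nuclear:ring intensity ratio and AC50.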
The AC50 is the midpoint of the concentration-response curve, whichever way the signal moves. A higher AC50 goes with weaker potency. For `C[C@H](c1cccc(F)c1N1CCC(C2(N3CCOCC3)CC2)CC1)S(=O)(=O)c1ccc(S(=N)(=O)N(C)C)cc1` (single isomer, unassigned) [Compound A-893], the half-maximal activity concentration (AC50) is no less than 10 µM. On the same count and under the same terms, next, `CC(c1cccc(F)c1N1[C@@H]2CCC[C@H]1CC2)S(=O)(=O)c1ccc(S(=N)(=O)N(C)C)cc1` (single isomer, unassigned) [Compound A-989, 4-((1-(2-(8-azabicyclo[3.2.1]octan-8-yl)-3-fluorophenyl)ethyl)sulfonyl)-N,N-dimethylbenzenesulfonimidamide]: 8.01 to 9.99 µM.

The same assay, now with this note: Homo sapiens, HeLa, 2 h, 2 hrs compound treatment, Table 1 does not say HeLa wt or TRPML1 KO.
`C[C@@H]1COC[C@@H](C)N1C[C@H]1CCN(c2c(F)cccc2NS(=O)(=O)c2ccc(S(=O)(=O)N(C)C)cc2)C1` (relative stereo) [Compound A-897, N4-{2-[(3R)-3-{[3,5-dimethylmorpholin-4-yl]methyl}pyrrolidin-1-yl]-3-fluorophenyl}-N1,N1-dimethylbenzene-1,4-disulfonamide]: the concentration at half-maximal activity (AC50) was no more than 2 µM.

Molecule `Cc1ccc([S+]([O-])c2ccccc2N2CCC(c3ccc(Cl)cc3F)CC2)cc1` (centres unmarked) [Compound A-144, 4-(4-chloro-2-fluorophenyl)-1-(2-(p-tolylsulfinyl)phenyl)piperidine] showed a concentration at half-maximal activity (AC50) of no less than 10 µM. On the same count and under the same terms, to `O=C(c1ccc(S(=O)(=O)Nc2ccccc2N2CCC(c3ccc(Cl)cc3F)CC2)cc1)C(F)(F)F` [Compound A-191, N-{2-[4-(4-chloro-2-fluorophenyl)piperidin-1-yl]phenyl}-4-(2,2,2-trifluoroacetyl)benzene-1-sulfonamide] belongs 2.01 to 8 µM; to `CN(C)S(=O)(=O)c1ccc(S(=O)(=O)Nc2ccccc2N2CC3CN(Cc4ccccc4)CC3C2)cc1` (centres unmarked) [Compound A-502, N4-(2-{5-benzyl-octahydropyrrolo[3,4-c]pyrrol-2-yl}phenyl)-N1,N1-dimethylbenzene-1,4-disulfonamide; formic acid], no more than 2 µM; to `CN(C)S(=O)(=O)c1ccc(C(=O)Nc2ccccc2N2CCN(c3ccc(Cl)cc3F)CC2)cc1` [Compound A-11, N-{2-[4-(4-chloro-2-fluorophenyl)piperazin-1-yl]phenyl}-4-(dimethylsulfamoyl)benzamide], no more than 2 µM. The same measure, in the same setting: to `CC(c1ccccc1N1CCN(C2COC2)CC1)S(=O)(=O)c1ccc(S(=O)(=O)N(C)C)cc1` (centres unmarked) [Compound A-603, N,N-dimethyl-4-(1-{2-[4-(oxetan-3-yl)piperazin-1-yl]phenyl}ethanesulfonyl)benzene-1-sulfonamide] belongs 2.01 to 8 µM; to `CS(=O)(=O)c1ccc(S(=O)(=O)Nc2ccccc2N2CCC(c3c(F)cccc3F)CC2)cc1` [Compound A-124, N-{2-[4-(2,6-difluorophenyl)piperidin-1-yl]phenyl}-4-methanesulfonylbenzene-1-sulfonamide], no more than 2 µM; to `CN(C)S(=O)(=O)c1ccc(S(=O)(=O)Nc2ccccc2N2CCC3(CCCCO3)CC2)cc1` [Compound A-562, N1,N1-dimethyl-N4-(2-{1-oxa-9-azaspiro[5.5]undecan-9-yl}phenyl)benzene-1,4-disulfonamide], no more than 2 µM. Still for that read-out and setting: next, `CN(C)S(=O)(=O)c1ccc(S(=O)(=O)Nc2ccccc2N2CCC(c3cccc(-c4nn[nH]n4)c3)CC2)cc1` [Compound A-272, N1,N1-dimethyl-N4-(2-{4-[3-(2H-1,2,3,4-tetrazol-5-yl)phenyl]piperidin-1-yl}phenyl)benzene-1,4-disulfonamide]: no less than 10 µM. `O=S(=O)(Nc1cccc(F)c1N1CCC(CN2C3COCC2C3)CC1)c1ccc(C(F)(F)C2CC2)cc1` [Compound A-898, 4-(cyclopropyldifluoromethyl)-N-{3-fluoro-2-[4-({3-oxa-6-azabicyclo[3.1.1]heptan-6-yl}methyl)piperidin-1-yl]phenyl}benzene-1-sulfonamide] displayed an AC50 of no less than 10 µM. The same measure, in the same setting: to `CC(c1cccc(F)c1N1CCOCC1)S(=O)(=O)c1ccc2c(c1)CCS2(=O)=O` (single isomer, unassigned) [Compound A-966, 5-((1-(3-fluoro-2-morpholinophenyl)ethyl)sulfonyl)-2,3-dihydrobenzo[b]thiophene 1,1-dioxide] belongs no less than 10 µM.

In turn, `CCCOc1ccc(S(=O)(=O)Nc2ccccc2N2CCN(C(=O)C(C)(C)C)CC2)cc1` [Compound A-573, N-{2-[4-(2,2-dimethylpropanoyl)piperazin-1-yl]phenyl}-4-propoxybenzene-1-sulfonamide] returned an AC50 of 8.01 to 9.99 µM. The same measure, in the same setting: next, `CN1CC2(CCN(c3c(F)cccc3NS(=O)(=O)c3ccc(S(=O)(=O)N(C)C)cc3)CC2)OC1=O` [Compound A-764, N4-(3-fluoro-2-{3-methyl-2-oxo-1-oxa-3,8-diazaspiro[4.5]decan-8-yl}phenyl)-N1,N1-dimethylbenzene-1,4-disulfonamide]: 2.01 to 8 µM; `CCOC1(C)CCN(c2ccccc2NS(=O)(=O)c2ccc(S(=O)(=O)N(C)C)cc2)CC1` [Compound A-523, N4-[2-(4-ethoxy-4-methylpiperidin-1-yl)phenyl]-N1,N1-dimethylbenzene-1,4-disulfonamide]: no more than 2 µM; `O=S(=O)(Nc1ccccc1N1CCC(c2ccc(Cl)cc2F)CC1)c1ccc(C(F)(F)F)c(F)c1` [Compound A-158, N-{2-[4-(4-chloro-2-fluorophenyl)piperidin-1-yl]phenyl}-3-fluoro-4-(trifluoromethyl)benzene-1-sulfonamide]: no more than 2 µM. Still for that read-out and setting: to `CN(C)S(=O)(=O)c1ccc(S(=O)(=O)Nc2ccccc2N2CCC(c3ccc(Cl)cc3F)CC2)cc1` [Compound A-23, N4-{2-[4-(4-chloro-2-fluorophenyl)piperidin-1-yl]phenyl}-N1,N1-dimethylbenzene-1,4-disulfonamide] belongs no more than 2 µM; to `CN(C)S(=O)(=O)c1ccc(S(=O)(=O)Nc2ccccc2N2CCC(c3cnn(C)c3)CC2)cc1` [Compound A-60, N1,N1-dimethyl-N4-{2-[4-(1-methyl-1H-pyrazol-4-yl)piperidin-1-yl]phenyl}benzene-1,4-disulfonamide], 2.01 to 8 µM; to `COCC1(C)CCN(c2ccccc2NC(c2ccc(S(=O)(=O)N(C)C)cc2)C(F)(F)F)CC1` (centres unmarked) [Compound A-684, N,N-dimethyl-4-(2,2,2-trifluoro-1-((2-(4-(methoxymethyl)-4-methylpiperidin-1-yl)phenyl)amino)ethyl)benzenesulfonamide], 2.01 to 8 µM. On the same count and under the same terms, next, `COCC1(C)CCN(c2ccccc2NS(=O)(=O)Cc2cccc(S(=O)(=O)N(C)C)c2)CC1` [Compound A-680, 3-[({2-[4-(methoxymethyl)-4-methylpiperidin-1-yl]phenyl}sulfamoyl)methyl]-N,N-dimethylbenzene-1-sulfonamide]: 8.01 to 9.99 µM; `CN(C)S(=O)(=O)c1ccc(S(=O)(=O)Nc2cccc(F)c2N2CCC(CN3CC4CC(C3)O4)CC2)cc1` [Compound A-791, N4-{3-fluoro-2-[4-({6-oxa-3-azabicyclo[3.1.1]heptan-3-yl}methyl)piperidin-1-yl]phenyl}-N1,N1-dimethylbenzene-1,4-disulfonamide]: no less than 10 µM; `Cc1ccc(CS(=O)(=O)Nc2ccccc2N2CCC3(CC2)COC(C)(C)C3)c(F)c1` [Compound A-688, N-(2-{3,3-dimethyl-2-oxa-8-azaspiro[4.5]decan-8-yl}phenyl)-1-(2-fluoro-4-methylphenyl)methanesulfonamide]: 2.01 to 8 µM. `COCC1(C)CCN(c2ccccc2NS(=O)(=O)Cc2ccccc2)CC1` [Compound A-532, N-{2-[4-(methoxymethyl)-4-methylpiperidin-1-yl]phenyl}-1-phenylmethanesulfonamide] came in with an AC50 of no more than 2 µM. In the case of `CN1CC2(CCN(c3ccccc3NS(=O)(=O)c3ccc(S(C)(=O)=O)cc3)CC2)c2cccnc21` [Compound A-348, 4-methanesulfonyl-N-(2-{1′-methyl-1′,2′-dihydrospiro[piperidine-4,3′-pyrrolo[2,3-b]pyridin]-1-yl}phenyl)benzene-1-sulfonamide], the AC50 lay within 8.01 to 9.99 µM. For `CC(c1ccc(F)cc1N1CCC2(CC1)COC(C)(C)C2)S(=O)(=O)c1ccc(S(=O)(=O)N(C)C)cc1` (centres unmarked) [Compound A-737, 4-[1-(2-{3,3-dimethyl-2-oxa-8-azaspiro[4.5]decan-8-yl}-4-fluorophenyl)ethanesulfonyl]-N,N-dimethylbenzene-1-sulfonamide], the half-maximal activity concentration (AC50) was no less than 10 µM. On the same count and under the same terms, next, `O=S(=O)(Nc1cc(Cl)ccc1N1CCN(c2ccc(Cl)cc2F)CC1)c1ccc2c(c1)CCC2` [Compound A-291, N-{5-chloro-2-[4-(4-chloro-2-fluorophenyl)piperazin-1-yl]phenyl}-2,3-dihydro-1H-indene-5-sulfonamide]: no more than 2 µM; `COCC1(C)CCN(c2ccccc2NS(=O)(=O)Cc2cccc3c2COC3)CC1` [Compound A-607, 1-(1,3-dihydro-2-benzofuran-4-yl)-N-{2-[4-(methoxymethyl)-4-methylpiperidin-1-yl]phenyl}methanesulfonamide]: 2.01 to 8 µM. Same read-out and setting: to `Cc1ccc(S(=N)(=O)Nc2ccccc2N2CCC(c3ccc(Cl)cc3F)CC2)cc1` (centres unmarked) [Compound A-151, N-{2-[4-(4-chloro-2-fluorophenyl)piperidin-1-yl]phenyl}-4-methylbenzene-1-sulfonoimidamide] belongs 2.01 to 8 µM. `COCC1(C)CCN(c2ccccc2NS(=O)(=O)Cc2ccc(C)cc2F)CC1` [Compound A-709, 1-(2-fluoro-4-methylphenyl)-N-{2-[4-(methoxymethyl)-4-methylpiperidin-1-yl]phenyl}methanesulfonamide] had an AC50 of 2.01 to 8 µM. Still for that read-out and setting: to `CN(C)S(=O)(=O)c1ccc(S(=O)(=O)Nc2ccccc2N2CCN(C(=O)C(O)c3ccccc3)CC2)cc1` (centres unmarked) [Compound A-335, N4-{2-[4-(2-hydroxy-2-phenylacetyl)piperazin-1-yl]phenyl}-N1,N1-dimethylbenzene-1,4-disulfonamide] belongs no less than 10 µM; to `CN(CC(C)(C)O)S(=O)(=O)c1ccc(S(=O)(=O)Nc2ccccc2N2CCC(c3c(F)cccc3F)CC2)cc1` [Compound A-224, N4-{2-[4-(2,6-difluorophenyl)piperidin-1-yl]phenyl}-N1-(2-hydroxy-2-methylpropyl)-N1-methylbenzene-1,4-disulfonamide], no less than 10 µM.
